From US20230357099A1, “PYRAZOLO [3,4-B] PYRIDINE-4-CARBOXAMIDE NITRIFICATION INHIBITOR” (EUROCHEM ANTWERPTEN, priority 2020, published 2023)
Where two headings read alike, the source gives them in different places.

Experiments:
[1] = tested on: ABIL (ammonia-binding liquid inoculum), nitrifying microbial enrichment containing both AOA and AOB; assay: Nitrification inhibition assay on ABIL (ammonium consumption); type: cell-based; conditions: for activity at 10 µM / ABIL - relative nitrification (%) at 10 µM: 10 µM compound
[2] = tested on: Nitrososphaera viennensis; assay: Nitrification inhibition assay on Nitrososphaera viennensis (nitrite, Griess); type: cell-based, Nitrososphaera viennensis EN76T; conditions: for N. viennensis - relative nitrification (%) at 0.5 µM: 0.5 µM compound; for N. viennensis - relative nitrification (%) at 0.5 µM / N. viennensis - relative nitrification (%) at 5 µM / N. viennensis - relative nitrification (%) at 25 µM: 0% = as strong as 100 µM PTIO, 100% = no inhibition; for N. viennensis - relative nitrification (%) at 5 µM: 5 µM compound; for N. viennensis - relative nitrification (%) at 25 µM: 25 µM compound; for activity at 2.5 µM: Nitrososphaera viennensis, 2.5 µM compound, structural variants outside formula (I), read-out: Relative nitrification (%) by Nitrososphaera viennensis treated with 2.5 µM compound
Method: Nitrite (NO2—) was measured using the Griess reagent (Product number: G4410, Griess reagent (modified), Sigma-Aldrich). Equal volumes of the sample or a diluted sample and the Griess reagent were mixed a transparent flat bottom multi-well plate and incubated in the dark at room temperature for 10 minutes. Absorbance values at 540 nm were measured spectrophotometrically (EnVision, Perkin Elmer®) and used to calculate the [NO2—] by use of a standard curve.
A liquid culture sample of Nitrososphaera viennensis EN76T was kindly supplied by prof. dr. Christa Schleper (University of Vienna). Cells were grown in fresh water medium (FWM) as described earlier by Tourna et al. (2011). All necessary materials were rinsed with 1 % HCl and washed at least 3 times with MilliQ water. FWM (pH 7.5 (KOH)) contained 17 mM NaCl, 3 mM MgCl2 × 2 H2O, 680 µM CaCl2 × 2 H2O, 1.47 mM KH2PO4 and 6.71 mM KCI. After autoclaving, successively 1 mL non-chelated trace element mixture (101 mM HCl, 488 µM H3BO3, 508 µM MnCl2 × 4 H2O, 803 µM CoCl2 × 6 H2O, 101 µM NiCl2 × 6 H2O, 12 µM CuCl2 × 2 H2O, 503 µM ZnSO4 × 7 H2O and 150 µM Na2MoO4 × 2 H2O), 1 mL Fe-NaEDTA (7.5 mM), 1 mL vitamin solution (20 mg/L biotin, 20 mg/L folic acid, 100 mg/L pyridoxine-HCl, 50 mg/L thiamine-HCl, 50 mg/L riboflavin, 50 mg/L nicotinic acid, 50 mg/L DL-pantothenic acid, 50 mg/L P-aminobenzoic acid, 2 g/L choline chloride and 10 mg/L vitamin B12), 2 mL NaHCO3 (1 M), 2 mL kanamycin (100 mg/mL), 2 mL carbenicillin (100 mg/mL), 3 mL NH4Cl (1 M), 10 mL HEPES buffer (1 M, pH 7.6) and 1 mL Na-pyruvate (0.1 M) were added aseptically. All stock-solutions were filter-sterilized, except the autoclaved non-chelated trace element mixture. Cultures were incubated aerobically at 42° C. without shaking in sterile 250-mL Erlenmeyer flasks or 30-mL cultivation tubes (Product number: 216-1290, Quickstart universal containers STERILIN®, VWR) filled with either 100 or 20 mL FWM and sealed with tape (Micropore™ Surgical Tape 1530-1, 3M™). Late-log phase cultures ([NO2-] ≥ 1 mM) were subcultivated by dilution (1:400) in fresh FWM.
7-day old 100 mL cultures grown in 250-mL Erlenmeyer flasks with a [NO2-] ≥ 1 mM were 5 times overconcentrated in fresh FWM by centrifugation (4000 rpm, 15 min, 5° C.) in 50 mL centrifuge tubes (Cat. No. 430829, CentriStar™ Conical Centrifuge Tubes, Corning®). Per batch, all the cultures were pooled in one sterile Schott bottle. Subsequently, 200 µl/well was dispensed at low pipetting speed in transparent flat bottom 96-well plates (Cat. No. 353072, Falcon® 96 Well Clear Microplate, Corning®) using 150 µl wide-bore tips (two steps of 100 µl) on a Tecan robot (Freedom EVO®, Tecan). 0.5 µl of 99.99 % DMSO (negative control - final concentration 0.25%) and 0.5 µl of 0.04 M PTIO (2-phenyl-4,4,5,5-tetramethylimidazoline-1-oxyl 3-oxide, positive control - final concentration 100 µM) were added manually to the first and last column respectively. Finally, 0.5 µl of candidate nitrification inhibitors (1 mM stock solutions in 99.99% DMSO - final concentration 2.5 µM) were added to the central wells using a pin tool on a Tecan robot (Freedom EVO®, Tecan). In between additions, the pins were washed in sequence with 99.5% DMSO, MilliQ water and 100% ethanol and air-dried. All plates were sealed with tape (Micropore™ Surgical Tape 1530-1, 3M™), stacked per 4 on top of a 96-well plate filled with 100 µl MilliQ per well and covered with aluminum foil. Position effects of the stacks within the incubator were considered. Plates were incubated at 42° C. without shaking. 24 h later, NO2— was measured spectrophotometrically at 540 nm (EnVision, Perkin Elmer®). […]

[3] = 24 h, 24 h, 0% = as strong as 100 µM PTIO, 100% = no inhibition, read-out: ABIL - relative nitrification (%) at 10 µM
[4] = 24 h, 0% = as strong as 100 µM PTIO, 100% = no inhibition
[5] = structural variants outside formula (I), read-out: Relative nitrification (%) by ABIL treated with 10 µM compound

Row | Structure (SMILES) | activity at 10 µM [1, 3] | activity at 10 µM [1, 5] | activity at 2.5 µM [2] | further results
1 | COCCNC(=O)c1cc(-c2ccc(C)cc2)nc2c1cnn2C(C)C [Example 1] | -9% |  |  | N. viennensis - relative nitrification (%) at 0.5 µM [2]: 52%; N. viennensis - relative nitrification (%) at 5 µM [2]: 0%; N. viennensis - relative nitrification (%) at 25 µM [2]: 0%
2 | Cc1nn(C)c2nc(C(C)C)cc(C(=O)N(C)c3nc4ccccc4s3)c12 [Example 3] | -41% |  |  | ABIL - relative nitrification (%) at 2 µM ([1]; 2 µM compound, 0% = as strong as 100 µM PTIO, 100% = no inhibition): -30%; N. viennensis - relative nitrification (%) at 0.5 µM [2]: 49%; N. viennensis - relative nitrification (%) at 5 µM [2]: 0%; N. viennensis - relative nitrification (%) at 25 µM [2]: 0%
3 | CC(C)c1cc(C(=O)NCC2CCCO2)c2cnn(C(C)C)c2n1 (centres unmarked) [Example 4] |  |  |  | ABIL - relative nitrification (%) at 10 µM [1, 4]: 10%
4 | COCCNC(=O)c1cc(C2CC2)nc2c1cnn2C(C)C [Example 5] | 11% |  |  | 
5 | COCCONC(=O)c1cc(C2CC2)nc2c1c(C)nn2C(C)(C)C [Example 6] | 16% |  |  | 
6 | CC(C)n1ncc2c(C(=O)Nc3nc4c(s3)CCC4)cc(C3CC3)nc21 [Example 7] |  |  |  | N. viennensis - relative nitrification (%) at 0.5 µM [2]: 85%; N. viennensis - relative nitrification (%) at 5 µM [2]: 7%; N. viennensis - relative nitrification (%) at 25 µM [2]: 2%
7 | Cc1nn(C)c2nc(-c3ccco3)cc(C(=O)N(C)CCOc3cccc(Cl)c3)c12 [Example 8] |  |  |  | N. viennensis - relative nitrification (%) at 0.5 µM [2]: 100%; N. viennensis - relative nitrification (%) at 5 µM [2]: 98%; N. viennensis - relative nitrification (%) at 25 µM [2]: 5%
8 | CCn1ncc2c(C(=O)NCC3CCCO3)cc(-c3ccccc3)nc21 (centres unmarked) [Example 9] |  |  |  | N. viennensis - relative nitrification (%) at 0.5 µM [2]: 100%; N. viennensis - relative nitrification (%) at 5 µM [2]: 100%; N. viennensis - relative nitrification (%) at 25 µM [2]: 54%
9 | CC(C)n1ncc2c(C(=O)NCCc3ccccn3)cc(C3CC3)nc21 [Example 10] | 19% |  |  | 
10 | Cc1nn(C(C)(C)C)c2nc(C3CC3)cc(C(=O)N(C)C)c12 [Example 11] | 25% |  |  | 
11 | Cc1nn(C(C)(C)C)c2nc(C3CC3)cc(C(=O)NC(C)C)c12 [Example 12] | 30% |  |  | 
12 | CC(C)c1cc(C(=O)NCC2CCCO2)c2cnn(C(C)C)c2n1 (centres unmarked) [Example 13] |  |  |  | ABIL - relative nitrification (%) at 10 µM [1, 4]: 49%
13 | CCC(C)NC(=O)c1cc(C(C)C)nc2c1cnn2C(C)C (centres unmarked) [Example 14] | 61% |  |  | 
14 | CC(C)n1ncc2c(C(=O)NCCN(C)C)cc(C3CC3)nc21 [Example 15] | 65% |  |  | 
15 | Cc1nn(C)c2nc(C3CC3)cc(C(=O)NCCC(C)C)c12 [Example 16] | 65% |  |  | 
16 | Cc1nn(C)c2nc(C3CC3)cc(C(=O)N(C)CC(=O)Nc3ccc(Cl)c(Cl)c3)c12 [Example 17] | 68% |  |  | 
17 | CCCN(C)C(=O)c1cc(C2CC2)nc2c1cnn2C(C)C [Example 18] | 69% |  |  | 
18 | CC(C)n1ncc2cc(NC(=O)C3CC3(Cl)Cl)cnc21 (centres unmarked) [Example 19] |  | 90% | 100% | 
19 | Cc1n[nH]c2nc(C(F)(F)F)cc(C(F)(F)F)c12 [Example 20] |  | 90% | 100% | 
20 | Cc1nn(C)c2ncc(C(=O)NCC3CN(CC(C)C)CCO3)cc12 (centres unmarked) [Example 21] |  | 90% | 100% | 

Row | Structure (SMILES) | activity at 10 µM [1, 3] | activity at 10 µM [1, 5] | activity at 2.5 µM [2] | further results
21 | CC(Oc1ccc(Br)cc1)C(=O)Nc1cnc2c(cnn2C(C)C)c1 (centres unmarked) [Example 22] |  | 90% | 100% | 
22 | CC(=O)NC(CC(=O)Nc1cnc2c(cnn2C(C)C)c1)c1ccc(Cl)cc1 (centres unmarked) [Example 23] |  | 91% | 100% | 
23 | CCc1nnc(NC(=O)c2cnc3c(cnn3C(C)C)c2)s1 [Example 24] |  | 91% | 100% | 
24 | c1csc(Cn2ncc3ccc(-c4ccc5c(c4)OCO5)nc32)c1 [Example 25] |  | 91% | 100% | 
25 | Cc1nc2c(cnn2C(C)C)c(C)c1CCC(=O)N1CCSCC1 [Example 26] |  | 92% | 100% | 
26 | CNC(=O)N(C)C(=O)c1cnc2c(cnn2C(C)C)c1 [Example 27] |  | 92% | 100% | 
27 | CC(C)n1ncc2cc(NC(=O)CCS(=O)(=O)c3ccc(Cl)cc3)cnc21 [Example 28] |  | 92% | 100% | 
28 | CCN(CC1CCOC1)C(=O)c1cnc2c(cnn2C(C)C)c1 (centres unmarked) [Example 29] |  | 92% | 100% | 
29 | CC(C)n1ncc2cc(CNc3ccc4[nH]ncc4c3)ccc21 [Example 30] |  | 92% | 100% | 
30 | Cc1nc2c(cnn2C(C)C)cc1C(=O)NC(C)C1CC1 (centres unmarked) [Example 31] |  | 93% | 99% | 
31 | CCC(C)n1ncc2c(C(=O)O)cc(C3CC3)nc21 (centres unmarked) [Example 32] |  | 94% | 90% | 
32 | CC(C)n1ncc2cc(C(=O)Nc3ccc(F)cc3F)cnc21 [Example 33] |  | 94% | 100% | 
33 | CCc1cccc(NC(=O)CCc2c(C)nc3c(c(C)nn3C)c2C)c1 [Example 34] |  | 96% | 99% | 
34 | CC(C)n1ncc2cc(NC(=O)CCC3CCCO3)cnc21 (centres unmarked) [Example 35] |  | 96% | 98% | 
35 | Cc1nc2c(c(C)nn2C)c(C)c1CCC(=O)O [Example 36] |  | 97% | 94% | 
36 | Cc1nn(C)c2ncc(CNCCCN3CCc4ccccc43)cc12 [Example 37] |  | 97% | 100% | 
37 | CC(C)n1ncc2cc(CN(C)C3CCSC3)cnc21 (centres unmarked) [Example 38] |  | 97% | 99% | 
38 | COc1ccc(OC)c(C(C)NC(=O)c2cnc3c(cnn3C(C)C)c2)c1 (centres unmarked) [Example 39] |  | 97% | 100% | 
39 | Cc1n[nH]c2ncc(CNCCc3ccsc3)cc12 [Example 40] |  | 98% | 93% | 
